Assay [1] relates to mouse colon adenocarcinoma 26 (C26) tumor. Briefly: Combinational efficacy of R848 and anti-PD-1 antibody in PD-L1 expressed C26 tumor model. It is filed as in vivo. The conditions noted are these: C26 s.c. in BALB/c mice; single agent, three-week period. On the procedure: The objective of this study was to determine the single or combinational efficacy of R848 and anti-PD-1 monoclonal antibody in the mouse colon adenocarcinoma 26 (C26) tumor model in immune-competent mouse. C26 cells were inoculated by subcutaneous injection into the right flank of BALB/c mice on Day 0. Tumors were monitored until they reached a mean tumor volume of between 60 and 100 mm3. Mice were then administered over a three-week period 10 mg/kg IV (via tail vein) of rat anti-mouse PD-1 monoclonal antibody alone twice weekly, 0.08 mg/kg of R848 alone once weekly, or a combination of anti-PD-1 antibody and R848. Tumor volumes were recorded twice weekly over the course of the study and the mice were observed regularly. Tumor-bearing mice (treatment, control) were sacrificed at Day 26 or if they became moribund before the tumor volume reached 2000 mm3. […] The differences in tumor inhibition by the combination treatment compared to that of each component is shown graphically (FIG. 5) and was highly significant (p=0.0002, anti-PD-1 and R848 combined versus R848 alone; p=0.0063 anti-PD-1 and R848 combined versus anti-PD-1 alone).

Assay [2] has as its system C26 tumor. Briefly: Combinational efficacy of anti-PD-L1 and R848 in PD-L1 expressed C26 tumor model (Study No. R-BDB001-0008). It is filed as in vivo. As to conditions: C26 s.c. in BALB/c mice; single agent, 3-week period. On the procedure:
The objective of this study was to determine the single or combinational efficacy of R848 and anti-PD-L1 monoclonal antibody in the C26 tumor model in immune-competent mouse. C26 cells were inoculated by subcutaneous injection into the right flank of BALB/c mice on Day 0. Tumors were monitored until they reached a mean tumor volume of between 60 and 100 mm3, inclusive. Mice were administered, over a 3-week period, 10 mg/kg IV (via tail vein) of rat anti-mouse PD-L1 monoclonal antibody alone twice weekly, 0.08 mg/kg of R848 alone once weekly, or a combination of anti-PD-L1 antibody and R848.
The differences in tumor inhibition by the combination treatment compared to that of each component is shown graphically (FIG. 6)) and was highly significant (p=0.0029, anti-PDL1 and R848 combined versus R848 alone; p=0.0074, anti-PDL1 and R848 combined versus anti-PDL1 alone).

Molecules are shown by their SMILES.

Regarding `CCOCc1nc2c(N)nc3ccccc3c2n1CC(C)(C)O` [R848, 4-amino-2-(ethoxymethyl)-a,a-di-methyl-1H-imidazo[4,5-c]quinoline-1-ethanol], the “inhibition in tumor growth” value in assay [1] and in assay [2] was “Limited inhibition” throughout.
